Measured values as given in PubChem BioAssay (NCI).
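In this assay, cells in 96-well plates receive the compound at five concentrations for 48 hours. Endpoints are linearly interpolated between the surrounding concentrations. TGI marks complete inhibition of growth.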

What was measured:
Assay in all cases: NCI tumour cell line growth inhibition, 48 h
[1] = tested on: 786-0 renal
[2] = tested on: A498 renal
[3] = tested on: A549 NSCLC
[4] = tested on: ACHN renal
[5] = tested on: BT-549 breast
[6] = tested on: CAKI-1 renal
[7] = tested on: CCRF-CEM leukemia
[8] = tested on: COLO 205 colon
[9] = tested on: DU-145 prostate
[10] = tested on: EKVX NSCLC
[11] = tested on: HCC-2998 colon
[12] = tested on: HCT-116 colon
[13] = tested on: HCT-15 colon
[14] = tested on: HL-60(TB) leukemia
[15] = tested on: HOP-62 NSCLC
[16] = tested on: HS 578T breast
[17] = tested on: HT29 colon
[18] = tested on: IGROV1 ovarian
[19] = tested on: K-562 leukemia
[20] = tested on: KM12 colon
[21] = tested on: LOX IMVI melanoma
[22] = tested on: M14 melanoma
[23] = tested on: MALME-3M melanoma
[24] = tested on: MDA-MB-231 breast
[25] = tested on: MDA-MB-435
[26] = tested on: MOLT-4 leukemia
[27] = tested on: NCI-H226 lung
[28] = tested on: NCI-H23 lung
[29] = tested on: NCI-H460 lung
[30] = tested on: NCI-H522 lung
[31] = tested on: NCI/ADR-RES ovarian
[32] = tested on: OVCAR-3 ovarian
[33] = tested on: OVCAR-5 ovarian
[34] = tested on: OVCAR-8 ovarian
[35] = tested on: PC-3 prostate
[36] = tested on: RPMI-8226 leukemia
[37] = tested on: SF-268 CNS
[38] = tested on: SF-295 CNS
[39] = tested on: SF-539 CNS
[40] = tested on: SK-MEL-2 melanoma
[41] = tested on: SK-MEL-28 melanoma
[42] = tested on: SK-MEL-5 melanoma
[43] = tested on: SK-OV-3 ovarian
[44] = tested on: SN12C renal
[45] = tested on: SNB-19 CNS
[46] = tested on: SNB-75 CNS
[47] = tested on: SR leukemia
[48] = tested on: SW-620 colon
[49] = tested on: T-47D breast
[50] = tested on: TK-10 renal
[51] = tested on: U251 CNS
[52] = tested on: UACC-257 melanoma
[53] = tested on: UACC-62 melanoma
[54] = tested on: UO-31 renal
[55] = tested on: HOP-92 NSCLC
[56] = tested on: MCF7 breast
[57] = tested on: OVCAR-4 ovarian
[58] = tested on: RXF 393 renal

S=c1sc2c(s1)SCc1cccc(n1)CSc1sc(=S)sc1SCc1cccc(n1)CS2
TGI [1]: > 100 µM
TGI [2]: > 100 µM
TGI [3]: > 100 µM
TGI [4]: > 100 µM
TGI [5]: > 100 µM
TGI [6]: > 100 µM
TGI [7]: > 100 µM
TGI [8]: > 100 µM
TGI [9]: > 100 µM
TGI [10]: > 100 µM
TGI [11]: > 100 µM
TGI [12]: > 100 µM
TGI [13]: > 100 µM
TGI [14]: > 100 µM
TGI [15]: > 100 µM
TGI [16]: > 100 µM
TGI [17]: > 100 µM
TGI [18]: > 100 µM
TGI [19]: > 100 µM
TGI [20]: > 100 µM
TGI [21]: > 100 µM
TGI [22]: > 100 µM
TGI [23]: > 100 µM
TGI [24]: > 100 µM
TGI [25]: > 100 µM
TGI [26]: > 100 µM
TGI [27]: > 100 µM
TGI [28]: > 100 µM
TGI [29]: > 100 µM
TGI [30]: > 100 µM
TGI [31]: > 100 µM
TGI [32]: > 100 µM
TGI [33]: > 100 µM
TGI [34]: > 100 µM
TGI [35]: > 100 µM
TGI [36]: > 100 µM
TGI [37]: > 100 µM
TGI [38]: > 100 µM
TGI [39]: > 100 µM
TGI [40]: > 100 µM
TGI [41]: > 100 µM
TGI [42]: > 100 µM
TGI [43]: > 100 µM
TGI [44]: > 100 µM
TGI [45]: > 100 µM
TGI [46]: > 100 µM
TGI [47]: > 100 µM
TGI [48]: > 100 µM
TGI [49]: > 100 µM
TGI [50]: > 100 µM
TGI [51]: > 100 µM
TGI [52]: > 100 µM
TGI [53]: > 100 µM
TGI [54]: > 100 µM

COc1cc(Nc2c(C#N)[n+]([O-])c3ccccc3[n+]2[O-])cc(OC)c1OC
TGI [1]: 49.8 µM
TGI [2]: > 100 µM
TGI [3]: > 100 µM
TGI [4]: > 100 µM
TGI [5]: > 100 µM
TGI [6]: > 100 µM
TGI [7]: > 100 µM
TGI [8]: 28.7 µM
TGI [9]: > 100 µM
TGI [10]: > 100 µM
TGI [11]: 86 µM
TGI [12]: 29.9 µM
TGI [13]: > 100 µM
TGI [14]: > 100 µM
TGI [15]: > 100 µM
TGI [55]: > 100 µM
TGI [16]: > 100 µM
TGI [17]: > 100 µM
TGI [19]: > 100 µM
TGI [20]: > 100 µM
TGI [21]: > 100 µM
TGI [22]: 36 µM
TGI [23]: > 100 µM
TGI [56]: 59 µM
TGI [25]: > 100 µM
TGI [26]: > 100 µM
TGI [28]: 38.2 µM
TGI [29]: > 100 µM
TGI [30]: > 100 µM
TGI [31]: 51 µM
TGI [32]: > 100 µM
TGI [57]: > 100 µM
TGI [33]: 54.7 µM
TGI [34]: > 100 µM
TGI [35]: > 100 µM
TGI [36]: > 100 µM
TGI [58]: > 100 µM
TGI [37]: > 100 µM
TGI [38]: > 100 µM
TGI [39]: > 100 µM
TGI [40]: > 100 µM
TGI [41]: > 100 µM
TGI [42]: 54.1 µM
TGI [43]: 67.4 µM
TGI [44]: > 100 µM
TGI [45]: > 100 µM
TGI [46]: > 100 µM
TGI [48]: > 100 µM
TGI [49]: 48.2 µM
TGI [50]: > 100 µM
TGI [51]: > 100 µM
TGI [52]: 67.2 µM
TGI [54]: > 100 µM
